Experimental data published in patent publication US20230406831A1, “COMPOUNDS AND METHODS OF INHIBITING BACTERIAL CHAPERONIN SYSTEMS” (THE TRUSTEES OF INDIANA UNIVERSITY, priority 2020, published 2023).
Read-outs that look alike come from different tables or passages of the source.

How the values were obtained:
[1] = molecular target: T1, native MDH (Sus scrofa, UniProt P00346); experiment: Native MDH enzymatic activity counter-screen; assay type: biochemical, pig
T1 construct: soluble pig heart MDH from Roche, product #10127248001; purchased Roche 10127248001; host or cells: pig heart
T1 sequence (P00346 25-338): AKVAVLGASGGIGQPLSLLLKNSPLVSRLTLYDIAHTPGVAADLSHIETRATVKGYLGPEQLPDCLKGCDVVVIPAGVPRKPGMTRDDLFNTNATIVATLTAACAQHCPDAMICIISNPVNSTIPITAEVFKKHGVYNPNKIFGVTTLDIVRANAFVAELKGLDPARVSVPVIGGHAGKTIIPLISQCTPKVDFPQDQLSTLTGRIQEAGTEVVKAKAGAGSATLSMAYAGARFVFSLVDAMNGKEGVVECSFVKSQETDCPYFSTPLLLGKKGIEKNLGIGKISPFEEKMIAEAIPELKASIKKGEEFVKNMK
Experimental: Counter-screening compounds for inhibition of native MDH enzymatic activity.
Reagent Preparations & Assay Protocol: This assay was performed as described above for the GroEL/ES-dMDH refolding assay; however, the assay protocol differed in the sequence of compound addition to the assay plates. The refolding reactions were allowed to proceed for 45 min at 37° C. in the absence of test compounds (complete refolding of MDH occurs), then quenched with the EDTA stock. Compounds were then pin-transferred into the plates after the EDTA quenching step; thus, compounds effects are only possible by inhibiting the fully-refolded MDH reporter substrate. Next enzymatic activity of the refolded MDH was initiated by addition of 20 μL MDH enzymatic assay stock (20 mM sodium mesoxalate and 2.4 mM NADH in reaction buffer, 50 mM Tris pH 7.4, 50 mM KCl, 1 mM DTT), and followed by measuring the NADH absorbance in each well at 340 nm using a Molecular Devices SpectraMax Plus384 microplate reader
A340 nm measurements were recorded at 0.5 minutes (start point) and at successive time points until the amount of NADH consumed reached ˜90% (end point, generally between 20-35 minutes). Compounds were tested in 8-point, 3-fold dilution series (62.5 μM to 29 nM during the reporter reaction) in clear, flat-bottom 384-well microtiter plates.
DMSO was used as a negative control, and previously discovered native MDH inhibitors were used as positive controls. IC50 values for the test compounds were obtained by plotting the % inhibition results in GraphPad Prism 6 and analyzing by non-linear regression using the log (inhibitor) vs. response (variable slope) equation. Results presented represent the averages of IC50 values obtained from at least quadriplicate (duplicate of duplicate) replicates.

[2] = tested on: S. aureus; experiment: S. aureus bacterial proliferation assay; assay type: cell-based; conditions: for EC50: Staphylococcus aureus, read-out: S. aureus Proliferation EC50
Experimental: Evaluation of compounds for inhibition of bacterial cell proliferation.
Growth Media: S. aureus bacteria were grown in Brain Heart Infusion (BHI) broth/agar (Becton, Dickinson and Company). All liquid cultures were grown in BHI media supplemented with 25 mg/L Ca^2+ and 12.5 mg/L Mg^2+ to mimic free physiological concentrations of these cations. A 10 mg/mL Ca^2+ stock solution was prepared by dissolving 3.68 g of CaCl2·2H^2O in 100 mL of deionized water, and a 10 mg/mL Mg^2+ stock solution was prepared by dissolving 8.36 g of […] in 100 mL deionized water. Both stock solutions were filter-sterilized using 0.2 μm pore size cellulose-acetate filters. 2.5 mL of the sterile 10 mg/mL Ca^2+ stock and 1.25 mL of the sterile 10 mg/mL Mg^2+ stock solutions were added per 1 L of autoclaved BHI medium to obtain 25 mg/L Ca^2+ and 12.5 mg/L Mg^2+ ions, respectively.
General Assay Protocol: Stock bacterial cultures were streaked onto BHI agar plates and grown overnight at 37° C. Fresh aliquots of broth were inoculated with single bacterial colonies and the cultures were grown overnight at 37° C. with shaking (240 rpm) in cation adjusted BHI media. The following morning, the overnight cultures were sub-cultured (1:5 dilution) into fresh aliquots of cation adjusted BHI media and grown at 37° C. for 1-2 hours with shaking. After 2 h, cultures were diluted into fresh media to achieve final OD600 readings of 0.017. Aliquots of these diluted cultures (30 μL) were added to clear, flat-bottom, 384-well polystyrene plates that were stamped with 0.5 μL of test compounds in 20 μL media. Compounds were evaluated in dose-response format where the inhibitor concentration range during the proliferation assay was 100 μM to 46 nM (3-fold dilution series). Plates were sealed with “Breathe Easy” oxygen permeable membranes (Diversified Biotech) and left to incubate at 37° C. without shaking (stagnant assay). OD600 nm readings were taken generally at 6-8 h, when bacteria had reached log-phase growth. A second set of baseline control plates were prepared analogously, but without any bacteria added, to correct for possible compound absorbance and/or precipitation. Plates were then read at 600 nm using a Molecular Devices SpectraMax Plus384 microplate reader. EC50 values for the test compounds were obtained by plotting the OD600 results in GraphPad Prism and analyzing by non-linear regression using the log(inhibitor) vs. response (variable slope) equation. For results, see Tables 1, 2, and 3.

[3] = Table 2, compounds added after refolding and EDTA quench, read-out: Biochemical Assay IC50 Native MDH Activity
[4] = Table 2, cation adjusted BHI media, OD600 at 6-8 h
[5] = Table 3, compounds added after refolding and EDTA quench, read-out: Biochemical Assay IC50 Native MDH Activity
[6] = Table 3, cation adjusted BHI media, OD600 at 6-8 h

## Cc1cc(C(C#N)c2ccc(Cl)cc2)c(Cl)cc1NC(=O)c1ccccc1[N+](=O)[O-] (stereo not shown) [Compound 67, N-(5-chloro-4-((4-chlorophenyl)(cyano)methyl)-2-methylphenyl)-2-nitrobenzamide]
[1]; [3]
  IC50: > 63 µM
[2]; [4]
  S. aureus Proliferation EC50: > 100 µM

## Cc1cc(C(C#N)c2ccc(Cl)cc2)c(Cl)cc1NC(=O)c1cccc(Cl)c1 (stereo not shown) [Compound 77, 3-chloro-N-(5-chloro-4-((4-chlorophenyl)(cyano)methyl)-2-methylphenyl)benzamide]
[1]; [3]
  IC50: > 63 µM
[2]; [4]
  S. aureus Proliferation EC50: > 100 µM

## O=C(Nc1ccc(O)cc1)c1cc(Cl)ccc1O [Compound 115, 5-chloro-2-hydroxy-N-(4-hydroxyphenyl)benzamide]
[1]; [5]
  IC50: > 63 µM
[2]; [6]
  EC50: > 100 µM

## O=C(Nc1ccc(Oc2ccccc2)c(Cl)c1)c1cc(Cl)ccc1O [Compound 91, 5-chloro-N-(3-chloro-4-phenoxyphenyl)-2-hydroxybenzamide]
[1]; [5]
  IC50: > 63 µM
[2]; [6]
  EC50: 0.21 µM

## COc1ccc(C(=O)Nc2cc(Cl)c(C(C#N)c3ccc(Cl)cc3)cc2C)cc1 (stereo not shown) [Compound 63, N-(5-chloro-4-((4-chlorophenyl)(cyano)methyl)-2-methylphenyl)-4-methoxybenzamide]
[1]; [3]
  IC50: > 63 µM
[2]; [4]
  S. aureus Proliferation EC50: > 100 µM

## COc1cc(Cl)ccc1C(=O)Nc1cc(Cl)c(C(C#N)c2ccc(Cl)cc2)cc1C (stereo not shown) [Compound 55, 4-chloro-N-(5-chloro-4-((4-chlorophenyl)(cyano)methyl)-2-methylphenyl)-2-methoxybenzamide]
[1]; [3]
  IC50: > 63 µM
[2]; [4]
  S. aureus Proliferation EC50: > 100 µM

## COc1ccc(Cl)cc1C(=O)Nc1ccc(Oc2ccc(Cl)cc2)cc1 [Compound 88, 5-chloro-N-(4-(4-chlorophenoxy)phenyl)-2-methoxybenzamide]
[1]; [5]
  IC50: > 63 µM
[2]; [6]
  EC50: > 100 µM

## O=C(Nc1ccc(Oc2ccc(Cl)cc2)cc1)c1cc(Cl)ccc1O [Compound 89, 5-chloro-N-(4-(4-chlorophenoxy)phenyl)-2-hydroxybenzamide]
[1]; [5]
  IC50: > 63 µM
[2]; [6]
  EC50: 0.36 µM

## COc1ccc(Cl)cc1C(=O)Nc1ccc(Sc2nc3ccccc3s2)cc1 [Compound 96, N-(4-(benzo[d]thiazol-2-ylthio)phenyl)-5-chloro-2-methoxybenzamide]
[1]; [5]
  IC50: > 63 µM
[2]; [6]
  EC50: > 100 µM

## O=C(Nc1ccc(Sc2nc3ccccc3s2)c(Cl)c1)c1cc(Br)cc(Br)c1O [Compound 1, reference compound]
[1]; Table 1, compounds added after refolding and EDTA quench, read-out: Biochemical Assay IC50 Native MDH Activity
  IC50: 6.3 µM
[2]; Table 1, cation adjusted BHI media, OD600 at 6-8 h
  EC50: 0.3 µM

## O=C(Nc1ccc(Oc2ccc(Cl)cc2)c(Cl)c1)c1cc(I)cc(I)c1O [Rafoxanide, reference compound]
[1]
  IC50: 17 µM
[2]
  EC50: 0.3 µM

## COc1ccc(Cl)cc1C(=O)Nc1ccc(Cc2ccccc2)cc1 [Compound 98, N-(4-benzylphenyl)-5-chloro-2-methoxybenzamide]
[1]; [5]
  IC50: > 63 µM
[2]; [6]
  EC50: > 100 µM

## Cc1cc(C(C#N)c2ccc(Cl)cc2)c(Cl)cc1NC(=O)c1ccccc1Br (stereo not shown) [Compound 73, 2-bromo-N-(5-chloro-4-((4-chlorophenyl)(cyano)methyl)-2-methylphenyl)benzamide]
[1]; [3]
  IC50: > 63 µM
[2]; [4]
  S. aureus Proliferation EC50: > 100 µM

## O=C(Nc1ccc(Sc2nc3ccccc3s2)cc1)c1cc(Cl)ccc1O [Compound 97, N-(4-(benzo[d]thiazol-2-ylthio)phenyl)-5-chloro-2-hydroxybenzamide]
[1]; [5]
  IC50: > 63 µM
[2]; [6]
  EC50: 0.1 µM

## COc1ccccc1C(=O)Nc1cc(Cl)c(C(C#N)c2ccc(Cl)cc2)cc1C (stereo not shown) [Compound 61, N-(5-chloro-4-((4-chlorophenyl)(cyano)methyl)-2-methylphenyl)-2-methoxybenzamide]
[1]; [3]
  IC50: > 63 µM
[2]; [4]
  S. aureus Proliferation EC50: > 100 µM

## COc1ccc(Cl)cc1C(=O)Nc1ccccc1 [Compound 116, 5-chloro-2-methoxy-N-phenylbenzamide]
[1]; [5]
  IC50: > 63 µM
[2]; [6]
  EC50: > 100 µM

## COc1ccc(Br)cc1C(=O)Nc1cc(Cl)c(C(C#N)c2ccc(Cl)cc2)cc1C (stereo not shown) [Compound 49, 5-bromo-N-(5-chloro-4-((4-chlorophenyl)(cyano)methyl)-2-methylphenyl)-2-methoxybenzamide]
[1]; [3]
  IC50: > 63 µM
[2]; [4]
  S. aureus Proliferation EC50: > 100 µM

## COc1ccc(Cl)cc1C(=O)Nc1ccc(Sc2nc3ccccc3s2)c(Cl)c1 [Compound 94, N-(4-(benzo[d]thiazol-2-ylthio)-3-chlorophenyl)-5-chloro-2-methoxybenzamide]
[1]; [5]
  IC50: > 63 µM
[2]; [6]
  EC50: > 100 µM

## COc1ccc(Cl)cc1C(=O)Nc1ccc(NC(C)=O)cc1 [Compound 104, N-(4-acetamidophenyl)-5-chloro-2-methoxybenzamide]
[1]; [5]
  IC50: > 63 µM
[2]; [6]
  EC50: > 100 µM

## Cc1cc(C(C#N)c2ccc(Cl)cc2)c(Cl)cc1NC(=O)c1ccccc1O (stereo not shown) [Compound 64, N-(5-chloro-4-((4-chlorophenyl)(cyano)methyl)-2-methylphenyl)-2-hydroxybenzamide]
[1]; [3]
  IC50: > 63 µM
[2]
  EC50: 0.28 µM

## O=C(Nc1ccc(Oc2ccc(Cl)cc2)c(Cl)c1)c1cc(Cl)ccc1O [Compound 87, 5-chloro-N-(3-chloro-4-(4-chlorophenoxy)phenyl)-2-hydroxybenzamide]
[1]; [5]
  IC50: > 63 µM
[2]; [6]
  EC50: 0.17 µM

## N#CCc1ccc(NC(=O)c2cc(Cl)ccc2O)cc1 [Compound 111, 5-chloro-N-(4-(cyanomethyl)phenyl)-2-hydroxybenzamide]
[1]; [5]
  IC50: > 63 µM
[2]; [6]
  EC50: > 100 µM

## Cc1cc(C(C#N)c2ccc(Cl)cc2)c(Cl)cc1NC(=O)c1ccc(N)cc1 (stereo not shown) [Compound 72, 4-amino-N-(5-chloro-4-((4-chlorophenyl)(cyano)methyl)-2-methylphenyl)benzamide]
[1]; [3]
  IC50: > 63 µM
[2]; [4]
  S. aureus Proliferation EC50: > 100 µM

## Cc1cc(C(C#N)c2ccc(Cl)cc2)c(Cl)cc1NC(=O)c1cccc([N+](=O)[O-])c1 (stereo not shown) [Compound 68, N-(5-chloro-4-((4-chlorophenyl)(cyano)methyl)-2-methylphenyl)-3-nitrobenzamide]
[1]; [3]
  IC50: > 63 µM
[2]; [4]
  S. aureus Proliferation EC50: > 100 µM

## COc1ccc(NC(=O)c2cc(Cl)ccc2OC)cc1 [Compound 112, 5-chloro-2-methoxy-N-(4-methoxyphenyl)benzamide]
[1]; [5]
  IC50: > 63 µM
[2]; [6]
  EC50: > 100 µM

## Cc1cc(C(C#N)c2ccc(Cl)cc2)c(Cl)cc1NC(=O)c1cc(Cl)cc(Cl)c1O (stereo not shown) [Compound 52, 3,5-dichloro-N-(5-chloro-4-((4-chlorophenyl)(cyano)methyl)-2-methylphenyl)-2-hydroxybenzamide]
[1]; [3]
  IC50: 5.5 µM
[2]; [4]
  EC50: 0.27 µM
